Data as given in article PMC11641365, “Evaluation of In Vitro Biological Activity of Flavanone/Chromanone Derivatives: Molecular Analysis of Anticancer Mechanisms in Colorectal Cancer” (International Journal of Molecular Sciences, 2024).
Where two headings read alike, the source gives them in different places.

Assays:
SW620 [1] = test: MTT cell viability assay; type: cell-based; conditions: Homo sapiens, SW-620, 24 h incubation with compound, mean ± SD of three experiments, read-out: Cytotoxic effect, IC50
Procedure: (§1) The cytotoxic activity of the 3-benzylideneflavanones, 3-benzylidenechromanones derivatives (compounds 1, 2, 3, 4, 5) and 5′-(3-methoxyphenyl)-2-phenyl-4′,5′-dihydro-4H-spiro[chromano-3,3′-pirazol]-4-one (compound 3a) was evaluated using the MTT assay (4,5-dimethylthiazol-2-yl)-2,5-diphenyltetrazoliumbromide), a colorimetric method that quantifies cell viability.
(§2) Cell viability was determined using the metabolic microplate spectrophotometric assay with Methylthiazolyl diphenyltetrazolium bromide (MTT) (Sigma-Aldrich; St. Louis, MO, USA). The MTT method belongs to metabolic tests for determining cell viability and consists of measuring the absorbance of a violet solution of formazan, a product of the reduction of a water-soluble yellow MTT by oxidoreductive enzymes (mainly mitochondrial succinate dehydrogenase) of living cells. The amount of the reaction product (water-insoluble formazan crystals) is proportional to the number of living and metabolically active cells in the sample. In the case of damaged or dead cells, formazan is formed in smaller amounts, or it is not formed.
(§3) The appropriate number of cells for a given cell line (6–8 × 10^3 cells/mL) were seeded onto colorless, sterile 96-well microplates (Nunc, Roskilde, Denmark) in the number appropriate for a given cell line. After 24 h of culture, various concentrations of the studied compounds (10^−7–10^−5 M) freshly prepared in DMSO (final concentration DMS < 0.1%) and diluted with complete culture medium were added and incubated in a CO2 incubator for 24 h. After this time, the medium was removed; the cell monolayer was washed twice with sterile PBS solution; and fresh culture medium was added to the microplate wells. After 48 h of cell culture, the MTT test was performed. A volume of 50 μL of tetrazolium salt solution (final concentration 0.05 mg/mL) was added to each microplate well. The microplate was placed for 3–4 h (depending on the cell line) in a CO2 incubator. After incubation, 100 μL of DMSO was added to the wells of the microplate to dissolve the purple formazan crystals formed in the living cell environment. The absorbance of the formazan solution, after gentle mixing, was read at a wavelength of λ = 580 nm and a reference wavelength of λ = 720 nm (Biotek Power Wave HT, Biotek Instruments, Winooski, VT, USA). The percentage of living cells was calculated by comparing the absorbance value of the tested samples with the absorbance value of the control (cells not treated with compounds). The absorbance of the control was taken as 100%.

[2] = system: human colon cancer cell lines: HCT 116, SW620, LoVo, Caco-2, and HT-29; test: MTT cell viability assay, statements across the panel; type: cell-based; conditions: range over the cancer cell lines, read-out: IC50 range against colon cancer cell lines
Procedure: as §1, with “viability. […] These IC50 values were subsequently used for all experiments investigating the anticancer activity of the flavanone/chromanone derivatives in this study.” for “viability.”
as §2
as §3, with “100%. […] Moreover, cisplatin (Sigma-Aldrich, St. Louis, MO, USA) was used as a reference compound, and identical incubation conditions were used as described above.” for “100%.”

LoVo = test: Intracellular GSH level, monochlorobimane (MCB) probe; type: cell-based, human; conditions: compound at IC50, 24 h, vs control
Procedure: (§4) The spectrofluorimetric method with monochlorobimane (MCB; Sigma-Aldrich; St. Louis, MO, USA) was used to determine GSH. Monochlorobimane reacts with glutathione in a reaction catalyzed by cellular glutathione S-transferase. The reaction produces a fluorescent bimane-glutathione conjugate (GSH-MCB). A major advantage of MCB is its ability to penetrate the cell membrane, which is why it is used as a probe to determine the amount of GSH in living cells.
(§5) Cells were seeded in black 96-well fluorometric microplates at a density of 10 × 10^3 cells/mL. […] Following compound incubation, the medium was removed, and the cell monolayers were washed twice with HBSS (140 mM NaCl, 5 mM KCl, 0.8 mM MgCl2, 1.8 mM CaCl2, 1 mM Na2HPO4, 10 mM HEPES, and 1% glucose). A solution of MCB at a final concentration of 40 μM was added to each well and incubated in a CO2 cell culture incubator at 37 °C for 20 min. A 40 mM MCB stock solution was prepared by dissolving 9 mg of the reagent in 1 mL of absolute ethanol. Fluorescence was measured using a Perkin-Elmer LS-5B spectrofluorometer (Waltham, MA, USA) at the following excitation and fluorescence emission wavelengths: λex = 380 nm/λem = 470 nm. After incubation with MCB, the cells were lysed with 50 μL of lysis buffer (10 mM TRIS-HCl; pH 8 containing 0.1% Triton X-100). In order to normalize the number of cells in individual samples, the amount of DNA was determined by adding 50 μL of ethidium bromide (EB, final concentration 0.2 mM) to each well after measuring the MCB fluorescence and measuring the EB fluorescence at an excitation wavelength of λex = 530 nm and an emission wavelength of λem = 590 nm. The results obtained using the standard curve were converted to nM of GSH.

SW620 [3] = test: as above; type: cell-based, human; conditions: compound at IC50, 24 h, vs control
Procedure: as §4, §5

Row | IC50 ([2]; Homo sapiens) [µM] | IC50 [2] [µM] | SMILES | IC50 (SW620 [1]) [µM] | Decrease in GSH levels (LoVo) | Decrease in GSH levels (SW620 [3]) [%]
1 | 8 to 30 | 8 to 20 | O=C1/C(=C/c2ccccc2)COc2ccccc21 [Compound 1] | 8.1 ± 1.7 | 30–35% | 40
2 | 8 to 30 | – | COc1cccc(/C=C2/C(=O)c3ccccc3OC2c2ccccc2)c1 (stereo not shown) [Compound 3] | 12.4 ± 2.1 | 30–35% | 30
3 | 8 to 30 | – | O=C1/C(=C/c2ccccc2)C(c2ccccc2)Oc2ccccc21 (stereo not shown) [Compound 5] | 16.7 ± 3.1 | 30–35% | 30
